# From PMC7497443, “Imaging CXCR4 Expression with Iodinated and Brominated Cyclam Derivatives” (Molecular Imaging and Biology, 2020)
# “Also recorded” adds a separate entry of the source. Where two headings read alike, the source gives them in different places.
# Legend:
# [1] = system: HIV; settings: cited from earlier work
# [2] = biological target: T1, CXCR4 (Homo sapiens, UniProt P61073); test: Competitive binding assay with U87-CXCR4 cells and 67Ga-Pentixafor; settings: U87-CXCR4 cells, 67Ga-Pentixafor 4.0 nM, 37 °C, 2 h, triplicate; read-out: IC50 affinity
# T1 construct: host or cells: U87 glioma cells transduced with CXCR4 (U87-CXCR4)
# Experimental: In order to determine the affinity of the halogenated cyclam derivatives, competitive binding studies were performed with U87-CXCR4 cells using ^67Ga-Pentixafor (CXCR4 receptor ligand). Briefly, triplicate samples containing 0.5 × 10^6 cells pre-seeded in 6-well plate, about 1.8 kBq of ^67Ga-Pentixafor (4.0 nM) and 0.001–1000 nM of the tested ligands (total volume 1.0 ml) were incubated at 37 °C for 2 h. After incubation, the cells were washed with 2 × 1 ml of ice-cold tris-buffered saline (pH 7.4) and then collected for measurement with a WIZARD 1480 gamma counter (PerkinElmer, Waltham, MA). The IC50 values were estimated using a least squares fitting routine (GraphPad Prism 6, San Diego, CA, USA).
# Competitive binding assays were performed using U87-CXCR4 cells (expressing high levels of CXCR4) and ^67Ga-Pentixafor [31, 32] as a radioligand.
# [3] = system: intracranial U87-CXCR4 tumors; test: PET imaging of intracranial U87-CXCR4 xenografts; assay type: in vivo, mice; settings: i.v. injection
# Experimental: (§1) All animal experiments were approved by the Institutional Animal Care and Utilization Committee of MSKCC. Eight human PCNSL xenograft models established at MSK (CG) were available for study. Female Athymic Nude Foxn (6–8 weeks old; ENVIGO) was used for subcutaneous implantation. Cancer cells, including U87-CXCR4, U87-WT, H69, and H82 (5 × 10^6 cells suspended in […] of cell culture medium/Matrigel [BD Bioscience] [v/v 5 1/1]), were inoculated to the shoulder/flank area of the animal. Twenty to 30 days after the inoculation, imaging and tissue sampling were performed when the tumor sizes were between 100 and 350 mm^3. […]
# Animals were administrated 3.7–11.1 MBq of ^76Br- or ^124I-labeled ligands via tail vein or intraspinal injection under 2 % isoflurane anesthesia. […] The tumors were centered in the field of view, and the PET acquisition time was 10 min (or longer if needed, until 50 million events are recorded). […] The calibration factor of both PET scanner was measured with a mouse-size phantom composed of a cylinder uniformly filled with an aqueous solution of ^18F of known activity concentration. The acquired PET/CT (or PET) images were analyzed using Inveon Research Workplace v4.2 software (or ASIPro software). […] The sequential radioactivity measurements (% injected dose/cc) were plotted vs. time of acquisition. […]
# [4] = system: U87-CXCR4, U87-WT, H69 and H82 s.c. tumors; test: Biodistribution in s.c. tumor-bearing animals 24 h after i.v. injection; assay type: in vivo, mice; settings: n = 3
# Experimental: as §1, with “mm^3. For orthotopic models, U87-CXCR4 cells (1 × 10^5 cells suspended in 10 μl of cell culture medium) in 30-gauge needle were injected into the right frontal cortex (stereotactic coordinates: bregma + 1.7 mm (anterior), lateral − 0.5 mm (right), and at a depth of 2.5 mm). Individuals performing implantation and stereotactic injections were blinded to the experimental design.” for “mm^3.”
# After the last PET imaging time point, the animals were euthanized for tissue dissection. […] The total injected radioactivity per animal was determined from the measured radioactivity in an aliquot of the injectate. Data were expressed as percent of injected dose per gram of tissue (%ID/g).
# [5] = system: U87-CXCR4 s.c. tumors; assay type: in vivo; settings: for accumulation in U87-CXCR4 s.c. tumors (in words): following i.v. injection; for in vivo de-halogenation / stability on PET imaging: thyroid radioactivity on PET images
# Experimental: All animal experiments were approved by the Institutional Animal Care and Utilization Committee of MSKCC. Eight human PCNSL xenograft models established at MSK (CG) were available for study. Female Athymic Nude Foxn (6–8 weeks old; ENVIGO) was used for subcutaneous implantation. Cancer cells, including U87-CXCR4, U87-WT, H69, and H82 (5 × 10^6 cells suspended in […] of cell culture medium/Matrigel [BD Bioscience] [v/v 5 1/1]), were inoculated to the shoulder/flank area of the animal. Twenty to 30 days after the inoculation, imaging and tissue sampling were performed when the tumor sizes were between 100 and 350 mm^3. For orthotopic models, U87-CXCR4 cells (1 × 10^5 cells suspended in 10 μl of cell culture medium) in 30-gauge needle were injected into the right frontal cortex (stereotactic coordinates: bregma + 1.7 mm (anterior), lateral − 0.5 mm (right), and at a depth of 2.5 mm). Individuals performing implantation and stereotactic injections were blinded to the experimental design.
# (§2) Animals were administrated 3.7–11.1 MBq of ^76Br- or ^124I-labeled ligands via tail vein or intraspinal injection under 2 % isoflurane anesthesia. At 1 h and 24 h after injection, PET/CT imaging (or PET imaging) was performed with an Inveon PET/CT system. The tumors were centered in the field of view, and the PET acquisition time was 10 min (or longer if needed, until 50 million events are recorded). The image data were normalized to correct for non-uniformity of response of the PET camera, dead-time count losses, positron branching ratio, and physical decay to the time of injection, but no attenuation, scatter, or partial-volume averaging correction was applied. The calibration factor of both PET scanner was measured with a mouse-size phantom composed of a cylinder uniformly filled with an aqueous solution of ^18F of known activity concentration. The acquired PET/CT (or PET) images were analyzed using Inveon Research Workplace v4.2 software (or ASIPro software). Region of interest (ROI) analysis of the acquired images was performed using ASIPro software (Siemens, Malvern, PA, USA), and the observed maximum pixel value (%ID/cc) was utilized to diminish partial volume effects of tumor. The sequential radioactivity measurements (% injected dose/cc) were plotted vs. time of acquisition.
# The imaging and uptake of 6 different radiolabeled cyclam derivatives were studied in subcutaneous tumor-bearing animals (animals bearing either 2 glioma or 2 glioma plus 2 lung cancer tumors) (Fig. 4). […] Radioactivity continued to increase in the U87-CXCR4 tumors but was washed out from the U87 wt (non-CXCR4-exressing) control tumors, over 60 min. […] Biodistribution studies confirmed the imaging studies. Comparing three radiolabeled cyclam derivatives, ^76Br-HZ270-1 was accumulated most avidly by U87-CXCR4 tumors and had the lowest overall systemic organ levels at 24 h post i.v. injection (Table 3). Brain radioactivity was lowest of all organs sampled. Based on these studies, ^76Br-HZ270-1 was selected for imaging intracranial CXCR4-expressing tumors.
# [6] = system: intracranial PCNSL-15 CXCR4-expressing tumors; test: PET imaging and autoradiography of intracranial PCNSL-15 tumors; assay type: in vivo, mice
# Experimental: as §2, with “acquisition. […]” for “acquisition.”
# [7] = system: H69 and H82 lung cancer cells; test: Uptake of radiohalogenated cyclam derivatives in lung cancer cells; assay type: cell-based, human; settings: 2.0 h incubation at 37 °C
# Experimental: (§3) Glioma (U87-CXCR4 and U87-WT) and lung cancer (H82 and H69) cell lines with different level of CXCR4 expression were utilized for cell uptakes of all synthesized six radiotracers. Each cell line (0.25 × 10^6 per well) was seeded into 6-well plates, and on the next day, triplicate samples containing approximately 1.85 kBq of *Br or *I-labeled ligand were added and kept incubation at 37 °C for 2.0 h. After washing twice with PBS (4 °C) on the ice-bed, the cells were harvested for measurement with the gamma counter.
# (§4) The uptake of 6 different radiolabeled cyclam derivatives was studied in 4 glioma and lung cancer cell lines (Fig. 2). The cell lines expressed both “high” (U87-CXCR4 and H69) and “low” (U87-WT and H82) levels of CXCR4, which were confirmed with IHC staining of CXCR4. […] These promising results from in vitro studies supported proceeding to in vivo PET imaging of CXCR4 expression in tumor-bearing animal models, using the newly developed radiolabeled cyclam derivatives.
# [8] = system: U87-CXCR4 and U87-WT glioma cells; test: Uptake of radiohalogenated cyclam derivatives in glioma cells; assay type: cell-based, human; settings: 2.0 h incubation at 37 °C
# Experimental: as §3, §4
# T1 sequence (P61073 whole entry): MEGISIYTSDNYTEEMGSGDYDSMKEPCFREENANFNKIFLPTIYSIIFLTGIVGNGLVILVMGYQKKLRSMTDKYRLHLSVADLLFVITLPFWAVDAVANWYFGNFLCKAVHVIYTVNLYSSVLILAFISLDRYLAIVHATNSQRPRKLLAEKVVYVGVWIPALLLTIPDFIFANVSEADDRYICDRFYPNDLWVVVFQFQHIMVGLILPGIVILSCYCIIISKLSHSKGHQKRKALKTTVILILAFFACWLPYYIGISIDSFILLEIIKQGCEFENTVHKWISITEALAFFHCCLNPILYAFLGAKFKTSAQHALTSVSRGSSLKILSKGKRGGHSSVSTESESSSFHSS
SMILES,IC50 [2],"Biodistribution, Blood [4]","Biodistribution, Bone [4]","Biodistribution, Brain [4]","Biodistribution, Heart [4]","Biodistribution, Kidneys [4]","Biodistribution, Liver [4]","Biodistribution, Spleen [4]","Biodistribution, U87 CXCR4 tumor [4]","Biodistribution, U87 WT tumor [4]",other results
c1cc(CN2CCCNCCNCCCNCC2)ccc1CN1CCCNCCNCCCNCC1 [AMD3100],,,,,,,,,,,"inhibited HIV infection, concentration range [1]: 1 to 10 nM"
"c1ccc(CNCc2ccc(CN3CCCNCCNCCCNCC3)cc2)nc1 [AMD3465, reference compound]",15 ± 5.8 nM,,,,,,,,,,
Brc1cc(CN2CCCNCCNCCCNCC2)ccc1CN1CCCNCCNCCCNCC1 [HZ261],9.47 ± 2.87 nM,,,,,,,,,,
Ic1cc(CN2CCCNCCNCCCNCC2)ccc1CN1CCCNCCNCCCNCC1 [HZ262],15.9 ± 0.4 nM,,,,,,,,,,
[76Br]c1cc(CNCc2ccccn2)ccc1CN1CCCNCCNCCCNCC1 [^76Br-HZ270-1],,0.59 ± 0.12 %ID/g,2.9 ± 0.5 %ID/g,0.14 ± 0.04 %ID/g,1.7 ± 0.3 %ID/g,41.3 ± 24.1 %ID/g,7.6 ± 1.3 %ID/g,2.1 ± 0.8 %ID/g,9.5 ± 1.3 %ID/g,1.6 ± 0.7 %ID/g,"PET imaging of CXCR4 expression in intracranial U87-CXCR4 tumors [3]: unsuccessful; also recorded: Very low levels of radioactivity were visualized; accumulation in U87-CXCR4 s.c. tumors (in words) [5]: accumulated highest; localization of radioactivity after spinal-CSF injection ([6]; autoradiography with CXCR4 IHC and H&E, PET 1 and 24 h post injection): not localized to CXCR4-expressing tumor; PET imaging of CXCR4 expression in intracranial PCNSL #15 tumors ([6]; i.v. or spinal-CSF injection): unsuccessful; H69/H82 uptake ratio [7]: 3.93 ± 0.74; radiotracer accumulation in H69 vs H82 cells (in words) [7]: highest; U87-CXCR4/U87-wt uptake ratio [8]: 2.96 ± 0.67; radiotracer accumulation in U87-CXCR4 vs U87-WT cells (in words) [8]: highest"
[76Br]c1cc(CN2CCCNCCNCCCNCC2)ccc1CNCc1ccccn1 [^76Br-HZ270-2],,1.6 ± 0.5 %ID/g,1.9 ± 0.6 %ID/g,0.53 ± 0.01 %ID/g,2.3 ± 0.4 %ID/g,53.7 ± 12.6 %ID/g,15.3 ± 3.5 %ID/g,2.5 ± 0.2 %ID/g,4.8 ± 1.6 %ID/g,1.5 ± 0.2 %ID/g,
[124I]c1cc(CN2CCCNCCNCCCNCC2)ccc1CN1CCCNCCNCCCNCC1 [^124I-HZ262],,,,,,,,,,,in vivo de-halogenation / stability on PET imaging [5]: greater in vivo stability; in vivo de-halogenation / stability on PET imaging ([5]; listed as 124I-AMD3100): no in vivo de-iodination
[124I]c1cc(CNCc2ccccn2)ccc1CN1CCCNCCNCCCNCC1 [^124I-HZ271-1],,1.5 ± .05 %ID/g,0.99 ± 0.33 %ID/g,0.07 ± 0.04 %ID/g,2.0 ± 0.4 %ID/g,45.0 ± 5.7 %ID/g,30 ± 23 %ID/g,1.3 ± 0.7 %ID/g,2.0 ± 0.3 %ID/g,0.96 ± 0.21 %ID/g,"Biodistribution, H69 tumor [4]: 2.3 ± 0.2 %ID/g; Biodistribution, H82 tumor [4]: 1.1 ± 1.0 %ID/g; Biodistribution, Lungs [4]: 2.3 ± 1.4 %ID/g; in vivo de-halogenation / stability on PET imaging [5]: significant decomposition in vivo"
[131I]c1cc(CN2CCCNCCNCCCNCC2)ccc1CN1CCCNCCNCCCNCC1 [^131I-HZ262],,,,,,,,,,,accumulation in U87-CXCR4 s.c. tumors (in words) [5]: accumulated highest; H69/H82 uptake ratio [7]: 3.81 ± 0.40; radiotracer accumulation in H69 vs H82 cells (in words) [7]: highest; U87-CXCR4/U87-wt uptake ratio [8]: 3.19 ± 1.02; radiotracer accumulation in U87-CXCR4 vs U87-WT cells (in words) [8]: highest
